Results published in patent publication US10604514B2, “6-(5-membered heteroaryl)isoquinolin-3-yl carboxamides and preparation and use thereof” (Samumed, LLC, priority 2017, dated 2020).
Where two headings read alike, the source gives them in different places.

Experiments:
[1] = tested on: Wnt activity (Sp5-Luc reporter in SW480 colon carcinoma cells); test: Wnt activity screening assay (Sp5-Luc reporter gene assay); assay type: cell-based, human; conditions: Homo sapiens; for EC50: Sp5-Luc reporter, SW480 cells, 36 to 48 hours; for inhibition at 10 µM: SW480, read-out: percent inhibition at 10 μM
Excerpt: The screening assay for Wnt activity is described as follows. Reporter cell lines can be generated by stably transducing cancer cell lines (e.g., colon cancer) or primary cells (e.g., IEC-6 intestinal cells) with a lentiviral construct that includes a Wnt-responsive promoter driving expression of the firefly luciferase gene.
SW480 colon carcinoma cells were transduced with a lentiviral vector expressing luciferase with a human Sp5 promoter consisting of a sequence of eight TCF/LEF binding sites. SW480 cells stably expressing the Sp5-Luc reporter gene and a hygromycin resistance gene were selected by treatment with 150 μg/mL of hygromycin for 7 days. These stably transduced SW480 cells were expanded in cell culture and used for all further screening activities. Each compound was dissolved in DMSO as a 10 mM stock and used to prepare compound source plates. Serial dilution (1:3, 10-point dose-response curves starting from 10 μM) and compound transfer was performed using the ECHO 550 (Labcyte, Sunnyvale, Calif.) into 384-well white solid bottom assay plates (Greiner Bio-One) with appropriate DMSO backfill for a final DMSO concentration of 0.1%. For Sp5-Luc reporter gene assays, the cells were plated at 4,000 cells/well in 384-well plates with a DMEM medium containing 1% fetal bovine serum, and 1% Penicillin-Streptomycin and incubated for 36 to 48 hours at 37° C. and 5% CO2. Following incubation, 15 μl of BriteLite Plus luminescence reagent (Perkin Elmer) was added to each well of the 384-well assay plates. The plates were placed on an orbital shaker for 2 min and then luminescence was quantified using the Envision (Perkin Elmer) plate reader. Readings were normalized to DMSO only treated cells, and normalized activities were utilized for EC50 calculations using the dose-response log (inhibitor) vs. response -variable slope (four parameters) nonlinear regression feature available in GraphPad Prism 5.0 (or Dotmatics).

GSK3β kinase = GSK3β kinase (Homo sapiens (Human), UniProt P49841); test: GSK3β kinase assay (Ser/Thr 09 peptide Z-lyte, FRET); assay type: biochemical; conditions: method text calls the value IC50;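 further: Coumarin/fluorescein emission ratio converted to percent phosphorylation against unphosphorylated (0%) and phosphorylated (100%) controls, 1 h compound incubation at room temperature, 11-point threefold dilutions from 10 µM, run in duplicate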
[2] = tested on: Tau phosphorylation at Ser396 (pSer396), SH-SY5Y cells; test: Tau phosphorylation at Ser396 (pSer396) in SH-SY5Y cells, ELISA/western blot; assay type: cell-based, human; conditions: Homo sapiens; SH-SY5Y cells, overnight (16-18 h); read-out: pSer396 Tau EC50;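 further: cell lysates probed for reduced Tau pSer396 via ELISA (colorimetric) or western blot (chemiluminescence), both with one shared pSer396 antibody, EC50 for lowering phosphorylation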
Description: Two days before treatment, cells were seeded onto 96 well plates at 5×10^4 cells/well.
Wells were visually checked for cell death or change in morphology and supernatants were tested for cytotoxicity by measurement of lactate dehydrogenase release (LDH, CytoToxOne kit, Promega) if necessary.
Cells were lysed with RIPA buffer complemented with phosphatase and protease inhibitors then lysates were spun down at 12,000 g for 10 min to remove any cellular debris. Lysates are then either directly tested for pSer396 by ELISA (Life Technology, Kit KHB7031) or loaded on NuPage Bis-Tris gels for western blot analysis. Colorimetric detection of ELISA signal is performed by Cytation3 plate reader (Biotek) and the chemiluminescence signal for HRP-linked antibodies used in western blotting is detected using a Carestream Image Station. The same pSer396 antibody is used for detection of pTau in both assays.

[3] = tested on: SW480 colon carcinoma cells; test: Cell viability assay (CellTiter-Glo) in SW480 cells; assay type: cell-based, human; conditions: Homo sapiens; for EC50: 96 h, cell viability, SW480 cells, four days, CellTiter-Glo; for inhibition at 10 µM: SW480, read-out: percent inhibition at 10 μM;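 on all read-outs here: SW480 cells stably carrying an Sp5-luciferase TCF/LEF reporter, luminescent ATP signal as viability measure, DMSO-treated cells as control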
[4] = tested on: LL29 cells (primary human fibroblasts derived from IPF patients), α-smooth muscle actin; test: Inhibition of fibrotic process: αSMA in TGF-β1-treated primary human fibroblasts from IPF patients (LL29 cells); assay type: cell-based; conditions: Homo sapiens, Fibroblast; for EC50: 96 h, % αSMA-positive LL29 cells, TGF-β1 20 ng/mL, 4 days; for inhibition at 10 µM: read-out: percent inhibition at 10 μM
Excerpt: Representative compounds were screened using primary human fibroblasts (derived from IPF patients) treated with TGF-β1 to determine their ability to inhibit the fibrotic process.
Primary human fibroblasts derived from IPF patients (LL29 cells) [^1Xiaoqiu Liu, et. al., “Fibrotic Lung Fibroblasts Show Blunted Inhibition by cAMP Due to Deficient cAMP Response Element-Binding Protein Phosphorylation”, Journal of Pharmacology and Experimental Therapeutics (2005), 315(2), 678-687; ^2Watts, K. L., et. al., “RhoA signaling modulates cyclin D1 expression in human lung fibroblasts; implications for idiopathic pulmonary fibrosis”, Respiratory Research (2006), 7(1), 88] were obtained from American Type Culture Collection (ATCC) and expanded in F12 medium supplemented with 15% Fetal Bovine Serum and 1% Penicillin/Streptomycin.
Each compound was dissolved in DMSO as a 10 mM stock and used to prepare compound source plates. Serial dilution (1:2, 11-point dose-response curves from […] to 0.94 nM) and compound transfer was performed using the ECHO 550 (Labcyte, Sunnyvale, Calif.) into 384-well clear bottom assay plates (Greiner Bio-One) with appropriate DMSO backfill for a final DMSO concentration of 0.1%. LL29 cells were plated at 1,500 cells/well in 70 μL/well F12 medium supplemented with 1% Fetal Bovine Serum. TGF-β1 (Peprotech; 20 ng/mL) was added to the plates to induce fibrosis (ref. 1 and 2 above). Wells treated with TGF-31 and containing DMSO were used as positive control, and cells with only DMSO were negative control. Cells were incubated at 37° C. and 5% CO2 for 4 days. Following incubation for 4 days, SYTOX green nucleic acid stain (Life Technologies [Thermo Fisher Scientific]) was added to the wells at a final concentration of 1 μM and incubated at room temperature for 30 min. Cells were then fixed using 4% formaldehyde (Electron Microscopy Sciences), washed 3 times with PBS followed by blocking and permeabilization using 3% Bovine Serum Albumin (BSA; Sigma) and 0.3% Triton X-100 (Sigma) in PBS. Cells were then stained with antibody specific to α-smooth muscle actin (αSMA; Abcam) (ref. 1 and 2 above) in 3% Bovine Serum Albumin (BSA; Sigma) and 0.3% Triton X-100 (Sigma) in PBS, and incubated overnight at 4° C. Cells were then washed 3 times with PBS, followed by incubation with Alexa Flor-647 conjugated secondary antibody (Life Technologies [Thermo Fisher Scientific]) and DAPI in 3% Bovine Serum Albumin (BSA; Sigma) and 0.3% Triton X-100 (Sigma) in PBS at room temperature for 1 hour. Cells were then washed 3 times with PBS and plates were sealed for imaging. αSMA staining was imaged by excitation at 630 nm and emission at 665 nm and quantified using the Compartmental Analysis program on the CellInsight CX5 (Thermo Scientific). Dead or apoptotic cells were excluded from analysis based on positive SYTOX green staining. % of total cells positive for αSMA were counted in each well and normalized to the average of 11 wells treated with TGF-β1 on the same plate using Dotmatics' Studies Software.

IL-6 = IL-6 inhibition in LPS-stimulated human peripheral blood mononuclear cells (HTRF); assay type: cell-based; conditions: Homo sapiens, PBMC; for EC50: IL-6, LPS-stimulated huPBMCs, HTRF
Description: Fresh Normal PB MNC (Catalog # PB001, AllCells, Alameda, Calif.) were shipped overnight at 4° C. and resuspended in Roswell Park Memorial Institute (RPMI) 1640 Medium, with GlutaMAX Supplement (Catalog #61870127, ThermoFisher Scientific, Waltham, Mass.) supplemented with 1% Penicillin-Streptomycin (Catalog #151401633 ThermoFisher Scientific, Waltham, Mass.) and 1% fetal bovine serum (FBS) (Catalog #16140089, ThermoFisher Scientific, Waltham, Mass.) assay media.
Fresh normal human peripheral blood mononuclear cells (huPBMCs) were resuspended in 1% FBS-RPMI assay media with 1% Penicillin-Streptomycin 1% to a cell concentration of 1×10e6 cells/mL. Each compound was dissolved in DMSO (Catalog # D8418-100 ml, Sigma-Aldrich, St. Louis, Mo.) as a 10 mM stock and used to prepare compound source plates. Serial dilution (1:3, 10-point dose-response curves starting from 10 μM) and compound transfer was performed using the ECHO 550 (Labcyte, Sunnyvale, Calif.) into 384-well white Proxiplate-Plus assay plates (Catalog #6008289, PerkinElmer, Shelton, Conn.) with appropriate DMSO backfill for a final DMSO concentration of 0.25%. huPBMCs were plated at 5000 cells/well in the 384-well Proxiplate-Plus assay plates and incubated at 37° C.-5% CO2 for 2 hours. 50 ng/mL of Lipopolysaccharides from Escherichia coli 0111:B4 (Catalog # L5293-2 ML, Sigma-Aldrich, St. Louis, Mo.) was added after 2 hours and cells were incubated for another 22 hours at 37° C.-5% CO2. After 22 hour incubation, a mixture of anti-IL6 XL665 and anti-IL-6 Cryptate diluted in reconstitution buffer (Catalog #62IL6PEC, Cisbio Inc., Bedford, Mass.) was added to each well. Following incubation for 3 hours at room temperature, Homogeneous Time-Resolved Fluorescence (HTRF) was measured using the Envision (Perkin Elmer, Shelton, Conn.) at 665 nm and […]. The ratio of fluorescence at 665 nm to 620 nm was used as a readout for IL-6 quantification. All samples were processed in duplicate. Readings were normalized to DMSO treated cells and normalized activities were utilized for EC50 calculations. EC50 was determined using software generated by Dotmatics Limited (Windhill Bishops Stortford Herts, UK) using the Levenberg-Marquardt 4 parameter fitting procedure with finite different gradients.

DYRK1A kinase = DYRK1A kinase (Homo sapiens (Human), UniProt Q13627); test: DYRK1A kinase assay (Ser/Thr 18 peptide Z-lyte, FRET)
[5] = DYRK1A kinase, method text calls the value IC50

Chain of GSK3β kinase (P49841 whole entry): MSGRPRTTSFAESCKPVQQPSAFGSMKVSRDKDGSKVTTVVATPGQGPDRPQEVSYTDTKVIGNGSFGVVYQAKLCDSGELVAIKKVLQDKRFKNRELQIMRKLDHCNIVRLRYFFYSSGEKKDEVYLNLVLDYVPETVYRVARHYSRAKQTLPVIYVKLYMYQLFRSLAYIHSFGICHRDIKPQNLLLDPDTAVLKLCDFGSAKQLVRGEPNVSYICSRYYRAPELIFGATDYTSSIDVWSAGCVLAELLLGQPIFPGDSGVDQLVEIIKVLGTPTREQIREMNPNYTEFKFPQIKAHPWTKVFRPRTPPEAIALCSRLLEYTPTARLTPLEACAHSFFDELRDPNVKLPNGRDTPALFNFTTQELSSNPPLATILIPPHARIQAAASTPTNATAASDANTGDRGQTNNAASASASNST

SMILES	EC50 [1]	EC50 (GSK3β kinase)	EC50 [2]	EC50 [3]	EC50 (IL-6)	EC50 (DYRK1A kinase; [5])	EC50 (DYRK1A kinase)	EC50 [4]	inhibition at 10 µM [1]	inhibition at 10 µM [3]	inhibition at 10 µM [4]	inhibition at 10 µM (IL-6; read-out: percent value in parentheses below EC50 >10)
Cn1cc(-c2cc(F)c3cnc(NC(=O)[C@H]4CC[C@H](N(C)C)CC4)cc3c2)cn1 [Compound 1, trans-4-(Dimethylamino)-N-(8-fluoro-6-(1-methyl-1H-pyrazol-4-yl)isoquinolin-3-yl)cyclohexane-1-carboxamide]	239 nM	107 nM	368 nM	839 nM	3040 nM	4 nM		445 nM				
Cn1cc(-c2cc3cc(NC(=O)[C@H]4CC[C@H](N(C)C)CC4)ncc3cc2F)cn1 [Compound 2, trans-4-(Dimethylamino)-N-(7-fluoro-6-(1-methyl-1H-pyrazol-4-yl)isoquinolin-3-yl)cyclohexane-1-carboxamide]	799 nM	246 nM	559 nM	4450 nM	1280 nM	4 nM		150 nM				
Cn1cc(-c2cc(F)c3cnc(NC(=O)[C@H]4CC[C@H](N5CCOCC5)CC4)cc3c2)cn1 [Compound 3, trans-N-(8-Fluoro-6-(1-methyl-1H-pyrazol-4-yl)isoquinolin-3-yl)-4-morpholinocyclohexane-1-carboxamide]	1860 nM	131 nM	458 nM	6670 nM	1120 nM	4 nM		153 nM				
CC(C)CN1CCC(CC(=O)Nc2cc3cc(-c4cnn(C)c4)ccc3cn2)C1 (stereo not shown) [Compound 4, 2-(1-Isobutylpyrrolidin-3-yl)-N-(6-(1-methyl-1H-pyrazol-4-yl)isoquinolin-3-yl)acetamide]	730 nM	22 nM	69 nM	907 nM	489 nM	4 nM		229 nM				
CC(C)CN1CCC(C(=O)Nc2cc3cc(-c4ccn(C)n4)ccc3cn2)CC1 [Compound 7, 1-Isobutyl-N-(6-(1-methyl-1H-pyrazol-3-yl)isoquinolin-3-yl)piperidine-4-carboxamide]	> 10000 nM	1900 nM		> 10000 nM	9420 nM	376 nM		2660 nM	32.9%	42.5%		
Cc1ncc(-c2cc(F)c3cnc(NC(=O)[C@H]4CC[C@H](N5CCOCC5)CC4)cc3c2)o1 [Compound 19, trans-N-(8-Fluoro-6-(2-methyloxazol-5-yl)isoquinolin-3-yl)-4-morpholinocyclohexane-1-carboxamide]	> 10000 nM	1160 nM		> 10000 nM	3220 nM	110 nM		> 10000 nM	22.4%	44.8%	20.6%	

Continued, in another order:

EC50 [1]	EC50 (GSK3β kinase)	EC50 [2]	EC50 [3]	EC50 (IL-6)	EC50 (DYRK1A kinase; [5])	EC50 (DYRK1A kinase)	SMILES	EC50 [4]	inhibition at 10 µM [1]	inhibition at 10 µM [3]	inhibition at 10 µM [4]	inhibition at 10 µM (IL-6; read-out: percent value in parentheses below EC50 >10)
1860 nM		320 nM			3 nM		Cc1ncc(-c2ccc3cnc(NC(=O)[C@H]4CC[C@H](N(C)C)CC4)cc3c2)o1 [Compound 45, trans-4-(Dimethylamino)-N-(6-(2-methyloxazol-5-yl)isoquinolin-3-yl) cyclohexane-1-carboxamide]	95 nM				
> 10000 nM		2830 nM	486 nM	1120 nM			[2H]c1c([2H])c(C(=O)Nc2cc3cc(-c4cncn4C)ccc3cn2)c([2H])c([2H])c1F [Compound 81, 4-Fluoro-N-(6-(1-methyl-1H-imidazol-5-yl)isoquinolin-3-yl)benzamide-2,3,5,6-d4]	309 nM	36.3%			
> 10000 nM	703 nM		> 10000 nM	> 10000 nM		1 nM	Cn1cc(-c2ccc3cnc(NC(=O)c4ccnc(N5CC[N+](C)([O-])CC5)c4)cc3c2)nn1 [Compound 224, 1-methyl-4-(4-((6-(1-methyl-1H-1,2,3-triazol-4-yl)isoquinolin-3-yl)carbamoyl)pyridin-2-yl)piperazine 1-oxide]	> 10000 nM	43.8%	24.6%	13.1%	13.7%
> 10000 nM	6710 nM		> 10000 nM	8960 nM	1000 nM		Cc1ncc(-c2cc(F)c3cnc(NC(=O)N(C)C4CCN(C)CC4)cc3c2)o1 [Compound 229, 3-(8-Fluoro-6-(2-methyloxazol-5-yl)isoquinolin-3-yl)-1-methyl-1-(1-methylpiperidin-4-yl)urea]	9980 nM	0%	49.5%		
